Columns and labels:
AB22 mesothelioma tumour = assay: Tumour growth by MRI in AB22 mesothelioma tumour bearing mice (CA-SF with or without BNCT); type: in vivo, Balb/c mice; details: three i.v. doses 37.5 mg/kg of boron at day 0, 2, 6, followed 25 days
Description: CA-SF treatment on mesothelioma bearing mice, were performed in the thermal column of the TRIGA Mark II reactor at Pavia University (Italy) using the same protocol reported in reference^35. The irradiation facility was previously designed for TAOrMINA treatment developed to treat multiple liver metastases with BNCT. The chamber used to perform animal irradiation has a cross section of 40 × 20 cm^2, a length of 1 m and it starts at about 1.3 m from the center of the reactor core. The animal irradiation position has been characterised in terms of neutron spectrum and background photon dose[43]. […]
The T2-weighted MR images were acquired at 1 T with an Aspect M2-High Performance MRI System (Aspect Magnet Technologies Ltd., Netanya, Israel) consisting of a NdFeB magnet, equipped with a 35 mm solenoid Tx/Tr coil of inner diameter 35 mm. […] The tumour volume (mm^3) was calculated in the region of interest (ROI) manually drawn on the whole tumour by ITK-SNAP software. Tumour volume enhancement (%) was calculated according to the following equation: ((tumour volume (time = n) – tumour volume (time = 0)/tumour volume (time = 0)) × 100, where time = 0 indicates the day of the first CA-SF treatment and time = n indicates the days when mice were acquired by MRI.

[1] = Boron biodistribution in AB22 tumour bearing mice (ICP-MS); type: in vivo, Balb/c mice; details: 37.5 mg/kg of boron, ± SD; for Brain [boron]: with β-cyclodextrin oligomer
Description: Adult male Balb/c mice were maintained under specific pathogen-free conditions at the animal facility of the Department of Molecular Biotechnology and Health Sciences (Turin University, Italy). All animal experiments have been carried out in accordance with the EU Directive 2010/63/EU for animal experiments. The animal treatment protocol was approved by the Italian Ministry of Health (Authorization Number 1012/2015-PR). AB22 cells were cultured as described above and tumours were generated by the injection of 4.8 × 10^6 AB22 cells in a final volume of 0.15 ml GFNR Matrigel (CORNING Ref. 354234): PBS (1:1 v/v) subcutaneously in the neck of the mouse. One week after the AB22-cell injection, the mice developed solid tumours of approximately 50 ± 10 mm^3 in volume. At this time, mice (n = 6) received an intravenous injection of CA-SF (88 mg/kg corresponding to 37.5 mg/kg of ^10B). Before the injection, CA-SF in DMSO was mixed in the presence of poly β-cyclodextrin (MW = 15,000 Da) previously dissolved in 0.9% solution of NaCl. The used CA-SF molar ratio with respect to β-cyclodextrin oligomer was 10:1. The DMSO concentration in 0.9% NaCl was kept under 5%. The mice were then sacrificed at 6 h (n = 3) and at 16 h (n = 3). The boron content of mice plasma, tumours, organs (Liver, Lung, Brain, Spleen, Kidneys) and healthy tissues (Muscle) was determined by ICP-MS technique (see below).
Boron content from cell samples, mice organs, plasma and tumours were determined using inductively coupled plasma mass spectrometry (ICP-MS) (Element-2; Thermo-Finnigan, Rodano (MI), Italy).
The mice blood was collected and centrifuged at 2500 rpm for 10 min to split the plasma part over whole blood; the tumours, organs and healthy tissues were explanted. All was weighted, dissolved in HNO3 (70%) and digested. Both natural boron abundant and ^10B enriched standard solution was analyzed during sample runs in order to check for variations in the systematic bias. The calibration curve was obtained using four boron absorption standard solutions (Sigma-Aldrich) in the range 0.1–0.004 μg/mL.

1-Sulfonamidomethyl-o-carborane [CA-SF]
tumour growth (MRI tumour volume) vs vehicle control mice (AB22 mesothelioma tumour; CA-SF alone, not irradiated): significantly inhibits mice tumour growth | tumour growth (MRI tumour volume), CA-SF + BNCT (AB22 mesothelioma tumour; neutron irradiation day 3, 15 min, 250 kW): dramatic reduction of the mass of tumours | Brain [boron] ([1]; 6 h post i.v.): 30.7 ± 11.2 µg/g | Kidney [boron] ([1]; 6 h post i.v.): 48.2 ± 15.3 µg/g | Liver [boron] ([1]; 6 h post i.v.): 64.5 ± 1.2 µg/g | Lungs [boron] ([1]; 6 h post i.v.): 37.2 ± 11.2 µg/g | Muscle [boron] ([1]; 6 h post i.v.): 13.2 ± 2.5 µg/g | Plasma [boron] ([1]; 6 h post i.v.): 20.4 ± 5.4 µg/g | Spleen [boron] ([1]; 6 h post i.v.): 18.5 ± 5.8 µg/g | Tumour [boron] ([1]; 6 h post i.v.): 13.8 ± 2.4 µg/g | Brain [boron] ([1]; 16 h post i.v.): 7.3 ± 1.1 µg/g | Kidney [boron] ([1]; 16 h post i.v.): 13.7 ± 1.9 µg/g | Liver [boron] ([1]; 16 h post i.v.): 22.7 ± 3.5 µg/g | Lungs [boron] ([1]; 16 h post i.v.): 12.1 ± 2.2 µg/g | Muscle [boron] ([1]; 16 h post i.v.): 4.4 ± 1.2 µg/g | Plasma [boron] ([1]; 16 h post i.v.): 11.1 ± 1.3 µg/g | Spleen [boron] ([1]; 16 h post i.v.): 6.2 ± 1.5 µg/g | Tumour [boron] ([1]; 16 h post i.v.): 7.4 ± 2.1 µg/g

Source: paper PMC7648750, “In vitro and in vivo BNCT investigations using a carborane containing sulfonamide targeting CAIX epitopes on malignant pleural mesothelioma and breast cancer cells” (Scientific Reports, 2020)
